The record followed here is patent US11384115B2, “Nuclear sulfated oxysterol, potent regulator of lipid homeostasis, for therapy of hypercholesterolemia, hypertriglycerides, fatty liver diseases, and atherosclerosis” (Virginia Commonwealth University, priority 2004, dated 2022).

Where two headings read alike, the source gives them in different places.

In one data set the test system is primary rat hepatocytes. As to the kind of experiment: Bile acid synthesis rate, conversion of [14C]cholesterol into methanol/water-soluble products. The class given is cell-based. To be noted: addition to primary rat hepatocytes. The procedure: FIGS. 9A-9B. Effect of the nuclear oxysterol on cholesterol uptake and bile acid biosynthesis. Rat primary hepatocyes were treated with nuclear extracts (methanol/water phase) (A and B) or purified nuclear oxysterol dissolved in control nuclear extract (C) 24 hrs after plating them. Then [^14C]cholesterol was added as described in FIG. 1. Culture media were then harvested at 0, 6, 12, and 24 hrs and radioactivity quantified (A). Bile acid synthesis rates (B and C) were measured as the conversion of [^14C]cholesterol into methanol/water extractable counts as described in (9). Bile acid synthetic rates were determined by the addition of 2.5 μCi of [^14C]cholesterol to each […] mm plate of confluent primary rat hepatocyte cultures ( 2.5×10^7 cells) 24 hrs after plating. Media and cells were harvested […]. Conversion of [^14C]cholesterol into [^14C]-methanol-water soluble products was determined by scintillation counting after extraction with chloroform-methanol (2:1, vol/vol) of cells and of culture media. Rates of bile acid biosynthesis following recombinant adenovirus infection were calculated as the ratio of [^14C]-methanol-water soluble counts to the sum of chloroform plus methanol-water counts. Individual bile acids were identified by HPLC analysis as described above. […] The phases were collected separately and counted.

For a further data set, the system named is HepG2 cells. As to the kind of experiment: Cholesterol biosynthesis from [1-14C]acetate by TLC and HPLC. The class given is cell-based, human. To be noted: HepG2, 25HC3S 6 hrs then [14C]acetate 4 hrs. The protocol:
After incubation of HepG2 cells with media containing 25HC3S for 6 hrs, cultures in 25-cm2 flasks were given 3 ml of the same fresh medium containing 5 μCi of the [1-^14C]acetate. After 4 hr incubation at 37° C., the media were removed and the cells were washed twice with phosphate-saline buffer (PBS), harvested with rubber police as described, and collected in Eppendoff tubes. The cells were sedimented by centrifugation and the pellets were washed three times by resuspension and sedimentation. The pellets were resuspended in 0.3 ml of PBS. The total lipids were extracted and separated by adding 3 volume of chloroform:methanol (v/v, 1:1). [^14C]Cholesterol and 27-hydroxycholesterol was isolated into chloroform phase and separated on TLC (tuluene:acetyl acetate, 2/3, v/v/). [1-^14C]acetate derivatives were visualized by Image Reader, Fujifilm BAS-1800 II.
[1-^14C]Acetate derivatives in the chloroform phase were analyzed by HPLC on an Ultrasphere Silica column (5μ×4.6 mm×25 cm; Backman, USA) using HP Series 1100 solvent delivery system (Hewlett Packard) at 1.3 ml/min flow rate. The column was equilibrated and run in a solvent system of hexane:isopropanol:glacial acetic acid (965:25:10, v/v/v), as the mobile phase. The effluents were collected every 0.5 min (0.65 ml per fraction) except as indicated. The counts in [^14C]acetate derivatives were determined by Scintillation Counting. […]

A further data set has as its system SREBP-1. As to the kind of experiment: Western blot of SREBP-1 activation in HepG2 cells. Format: cell-based, human. To be noted: for mature forms of SREBP-1: HepG2, dose dependent. The protocol: FIGS. 18A-18D. Western blot analysis of SREBPs activation following 25HC3S or 25HC treatment in HepG2 cells. […] SREBP-1 and SREBP-2 protein levels in the cells were determined by Western blot analysis. The extracted protein (100 μg) was loaded onto each lane for each condition as indicated. The data represent a typical result from one of three independent experiments. The trends of the protein levels are highly reproducible.
Microsomal proteins (80 μg) were separated on a 7.5% SDS-polyacrylamide denaturing gel according to the method of Laemmli (14). Following SDS-PAGE (Hoefer Vertical Slab Gel Unit; Heofer, San Francisco, Calif.), proteins were electrophoretically transferred overnight (4° C.) to Immobilon-P membranes using a Hoefer Trans Blot Electrophoretic Transfer cell. The membranes were then blocked for 90 minutes (25° C.) in blocking buffer (PBS, pH 7.4, 0.1% Tween, 5% non-fat dry milk). Proteins were then incubated for 90 minutes (25° C.) or overnight (4° C.) with a rabbit polyclonal IgG (1:2500-1:20,000) against human SREBP-1, SREBP-2, or HMG CoA reductase. After washing, a secondary antibody (goat anti-rabbit IgG-Horse-radish peroxidase conjugate, 1:2500) was added to the blocking solution (25° C., 90 minutes). Protein bands were detected using the Amersham ECL plus Kit.

Data set [1] can be described thus: Water solubility (statement). Format: physicochemical.
A short description of data set [2]: Single peritoneal injection in mice, serum lipids and serum enzymes. Format: in vivo. The procedure: Administration to female mice (20-25 g weight) was by peritoneal injection once with or without 72 μg of the nuclear oxysterol in 100 μl of 0.9% NaCl containing 3 μl of ethanol. Twelve hrs following the injection, blood was harvested for analysis of triglycerides and cholesterol.

Another data set has as its target T1, PPARγ (Homo sapiens, UniProt P37231).
T1 construct: THP-1 monocytes were differentiated to macrophages by adding 100 nM of phorbol 12-myristate 13-acetate (PMA); endogenous in cells; host or cells: THP-1 monocyte-derived macrophages (human, ATCC)
T1 sequence (P37231 1-505): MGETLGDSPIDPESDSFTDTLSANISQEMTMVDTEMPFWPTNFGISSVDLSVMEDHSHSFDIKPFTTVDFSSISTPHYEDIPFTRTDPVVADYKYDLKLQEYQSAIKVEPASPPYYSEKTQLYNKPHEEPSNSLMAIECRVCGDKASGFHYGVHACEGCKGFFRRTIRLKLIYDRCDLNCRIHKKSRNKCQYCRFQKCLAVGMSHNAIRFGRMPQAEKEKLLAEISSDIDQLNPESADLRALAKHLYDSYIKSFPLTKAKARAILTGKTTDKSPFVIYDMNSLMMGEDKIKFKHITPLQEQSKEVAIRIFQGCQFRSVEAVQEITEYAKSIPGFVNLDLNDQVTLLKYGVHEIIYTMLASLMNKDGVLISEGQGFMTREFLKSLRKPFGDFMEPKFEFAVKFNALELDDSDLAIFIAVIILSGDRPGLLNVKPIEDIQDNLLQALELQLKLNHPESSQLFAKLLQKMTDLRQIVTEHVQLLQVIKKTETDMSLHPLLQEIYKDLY
As to the kind of experiment: Confocal immunofluorescence of intracellular PPARγ distribution in THP-1 macrophages. To be noted: compared with DMSO; 25 μM 25HC3S, 1 μM T0070907. Format: cell-based.

The next data set relates to NFκB. As to the kind of experiment: Western blot of nuclear NFκB levels in THP-1 macrophages. Format: cell-based, human.
[3] abbreviates: female mice, 72 μg peritoneal injection once, 12 hrs.
Where [4] appears, read: in vivo, only one administration.

Method for NFκB: A, THP-1 macrophages were treated with 25HC3S or 25HC for 24 hrs followed by addition or no addition of TNFα for another 3 hrs. The nuclear NFκB levels were analyzed by Western blot. The data represent one typical result out of three experiments.
Fifty μg of total cell lysates or nuclear protein extracts, otherwise as indicated, were separated on 10% SDS-PAGE gels and transferred onto a polyvinylidene difluoride membrane as described previously [31]. Membranes were blocked in TBS containing 5% of nonfat dried milk for 1 hr. The specific proteins were determined by incubation with specific antibodies against human PPAR or IκB overnight at 4° C. with shaking. After washing, the membrane was incubated in a 1:3,000 dilution of a secondary antibody (goat anti-rabbit or anti-mouse IgG-HP conjugate; Bio-Rad, Hercules, Calif.) at room temperature for 1 hr in the washing buffer (Tris buffered solution containing 0.5% Tween 20). The protein bands were visualized using Western Lightening Chemiluminescence Reagent (Perkin-Elmer, Waltham, Mass.). The expression levels were normalized to Lamin.
Method for PPARγ: Confocal microscopy analysis of intracellular translocation of PPARγ protein distribution. The nuclear marker was stained with DAP1 and PPARγ protein was detected by anti-PPARγ immunofluorescence.
THP-1 derived macrophages were cultured on coverslips in six-well plates and treated with different concentrations of 25HC and 25HC3S for 4 hrs. The cells on coverslips were washed with PBS, fixed with 3.7% formaldehyde for 10 min at 4° C., and then rinsed three times with PBS at room temperature. They were then permeabilized with PBS containing 0.1% of TritonX-100 for 3 min and washed with PBS before blocking by incubation with 5% of normal goat serum in PBS overnight at 4° C. For interaction with primary antibodies, cells were incubated with 2.5% normal goat serum in PBS containing PPARγ antibody for 1 hr in an incubator. Cells were washed in PBS containing 0.05% of Tween 20 (3×10 min). The bound primary antibodies were visualized with Alexa Fluor 488 goat anti-mouse IgG. The minor groove of double stranded DNA as a nuclear marker was stained by DAPI. Afterwashing, coverslips were mounted on slides and viewed with a Zeiss LSM 510 Meta confocal microscope.

With `C[C@H](CCCC(C)(C)O)[C@H]1CC[C@H]2[C@@H]3CC=C4C[C@@H](OS(=O)(=O)O)CC[C@]4(C)[C@H]3CC[C@]12C` [25HC3S, 5-cholesten-3β, 25-diol 3-sulphate], the “effect on bile acid synthetic rates” value in the data set on primary rat hepatocytes was “very similar to those in cells directly treated with the nuclear extracts from the StarD1 overexpressing cells”. The “free [14C]cholesterol synthesized from [14C]acetate” value in the data set on HepG2 cells is “significantly decreased”. For the same compound, in the data set with SREBP-1, the “mature forms of SREBP-1” value was “decreases”. The “inhibition of SREBP-1 activation” value in the data set on SREBP-1 (HepG2, media containing 50 μM of mevinolin and 0.5 μM of mevalonate) is listed as “more potent inhibition on SREBP-1 activation than 25HC”. Also, in data set [1], the water solubility result was “water soluble”. In data set [1] (listed as 25-hydroxycholesterol 3-sulfate), the water solubility entry is reported as “water-soluble”. In data set [2] (female mice, 72 μg peritoneal injection once), the “activities of alkaline phosphotase, SGPT and SGOT in sera” value was “did not increase”. Also, in data set [2] (setting [3]), the “decrease of cholesterol levels in serum” value stood at 15% and the “decrease of triglycerides in serum” value was 40%. Besides, in data set [2] (setting [4]), the HDL result was “significantly increases”; the decrease of serum cholesterol and triglyceride was 20%. Moreover, the “nuclear PPARγ fluorescence intensities” value at PPARγ is “increased”. In addition, the “nuclear NFκB levels” value in the data set with NFκB (in the absence of TNFα, 24 hrs) is listed as “decreased”. In the data set on NFκB (in the presence of TNFα), the “nuclear NFκB levels” value was “failed to decrease”.
In the case of `C[C@H](CCCC(C)(C)O)[C@H]1CC[C@H]2[C@@H]3CC=C4C[C@@H](O)CC[C@]4(C)[C@H]3CC[C@]12C` [25HC, 25-hydroxycholesterol, reference compound], in the data set on SREBP-1, the “mature forms of SREBP-1” value is on record as “decreases”. Moreover, the “nuclear NFκB levels” value in the data set with NFκB (in the absence of TNFα, 24 hrs) is “increased”; in the data set on NFκB (in the presence of TNFα) it was “significantly increased”.
